From patent publication US11117901B2, “Substituted pyrazolo[4,3-h]quinazolines as choline kinase inhibitors” (NERVIANO MEDICAL SCIENCES S.R.L., priority 2017, dated 2021)

Experiments:
[1] = biological target: T1, Δ49N-hChoKα (Homo sapiens, UniProt P35790); test: Biochemical kinase inhibition assay (Kinase-Glo luminescent) on Δ49N-hChoKα; conditions: recombinant Δ49N-hChoKα 2.2 nM, ATP 5 μM, choline 5 μM, 60 min rt; read-out: ChoKα IC50
T1 construct: cDNA fragment 362-1534, corresponding to aminoacids 50 457; GST (N, cleaved yes); PreScission Protease recognition site (N); made in house; host or cells: Escherichia coli BL21pLysS (DE3)
Outline: (§1)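 Kinase-Glo residual-ATP luminescence with in-house E. coli-expressed, tag-cleaved enzymes: Δ49N-hChoKα 2.2 nM with 5 μM choline; hChoKβ FL 30 nM with 20 μM choline. Both used 5 μM ATP, 60 min at room temperature, 1% DMSO, pH 7.5 Hepes buffer. IC50 from 4-parameter fits of ten 3-fold dilutions from 10 μM.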

[2] = biological target: T2, hChoKβ FL (Homo sapiens, UniProt Q9Y259); test: Biochemical kinase inhibition assay (Kinase-Glo luminescent) on hChoKβ FL; conditions: recombinant hChoKβ FL 30 nM, ATP 5 μM, choline 20 μM, 60 min rt; read-out: ChoKβ IC50
T2 construct: hChoKβ full length (FL), corresponding to aminoacids 2-395; GST (N, cleaved yes); PreScission Protease recognition site (N); made in house; host or cells: Escherichia coli BL21pLysS (DE3)
Outline: as §1

[3] = system: [Phosphocholine] in MDA-MB-468 cell extracts; test: Phosphocholine determination assay in cell extracts (target inhibition in cells); format: cell-based; conditions: Homo sapiens, 24 h treatment, vs untreated control
Procedure: (§2) For the determination of phosphocholine in cells, extracts were prepared according to ref. Cancer Res., 2005, 65, 9369-9376 with some modifications. MDA-MB-468 breast cancer cell line was plated at 1×10^6 cells in 10 cm petri dish culture in RPMI, 10% FCS culture medium. After 24 h, fresh medium and a compound of general formula (I) were added for further 24 h. At the end of the treatment, the cells were trypsinised, counted and the diameter was determined using a Coulter Counter (Multisizer 3, Beckman). Cells were washed twice with ice-cold physiologic saline solution and 2×10^6 cells resuspended in 0.3 mL ice-cold twice-distilled water. Then, 0.7 mL ice-cold absolut EtOH were added (final ratio EtOH/H2O 70:30, v/v). After 24 h at −20° C. the samples were sonicated and centrifuged at 14,000×g for 30 minutes.
(§3) Phosphocholine concentration levels were assessed in the supernatants using an Ultra High Pressure Liquid Chromatography system (UPLC®, Waters) coupled with a triple quadrupoles mass spectrometer (TQD, Waters) operating in single reaction monitoring mode (SRM). Analyses were performed using Acquity HSS T3 column 2.1×50 mm column, 1.8 μm particle size. Mobile phase A was H2O, modified with 0.15% formic acid, and mobile phase B was MeOH (100% A→97% A over 1 min, flow rate 0.5 mL/min). Waters TQD triple quad mass spectrometer was equipped with an electrospray ion source operating in the positive mode. Source parameters were set as follows: desolvation gas flow 1000 L/h, cone gas flow 50 L/h; collision gas flow 0.2 mL/min; source temperature 130° C.; desolvation temperature 450° C. Dimethyl glicine (DMG) was added to samples as internal standard at 100 μM final concentration. The monitored transitions were m/z 184.00 to 85.7 (collision energy 24 eV) for phosphocholine and m/z 103.0 to 57.5 (collision energy 13 eV) for DMG. The concentration of PCho in the sample was normalized to the total volume of cells (number cells×volume of single cell considered like a sphere).
As an example, the mechanism of action of cpd 39 is reported in Table 2 (Control refers to untreated cells).

[4] = system: [Phosphocholine] in MDA-MB-468 cell supernatants; test: Phosphocholine determination in cell culture medium (supernatants); format: cell-based; conditions: Homo sapiens, 24 h treatment, vs untreated control
Procedure: as §2
as §3, with “Dimethyl glicine (DMG) was added to samples as internal standard at 100 μM final concentration.” left out, “The concentration of PCho in the sample was normalized to the total volume of cells (number cells×volume of single cell considered like a sphere).” left out
For the determination of phosphocholine in cell culture medium, cell culture supernatants (500 μL) were denatured by adding 100 μL of trichloroacetic acid (TCA) 1M containing dimethyl glicine (DMG) (100 μM), used as internal standard. […] The supernatants were subsequently analyzed for phosphocholine determination. […]

T2 sequence (Q9Y259 2-395): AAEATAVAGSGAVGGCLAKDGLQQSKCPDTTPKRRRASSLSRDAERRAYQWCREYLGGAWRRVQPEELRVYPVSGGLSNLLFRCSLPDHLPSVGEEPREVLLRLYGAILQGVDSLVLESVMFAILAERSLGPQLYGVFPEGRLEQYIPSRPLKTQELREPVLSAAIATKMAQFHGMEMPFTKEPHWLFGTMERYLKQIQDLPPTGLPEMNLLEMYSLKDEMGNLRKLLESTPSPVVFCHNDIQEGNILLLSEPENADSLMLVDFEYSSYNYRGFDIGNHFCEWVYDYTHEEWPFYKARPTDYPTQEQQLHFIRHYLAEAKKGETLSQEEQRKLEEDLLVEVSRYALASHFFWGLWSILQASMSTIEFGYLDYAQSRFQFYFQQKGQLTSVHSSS
T1 sequence (P35790 50-439 isoform P35790-2): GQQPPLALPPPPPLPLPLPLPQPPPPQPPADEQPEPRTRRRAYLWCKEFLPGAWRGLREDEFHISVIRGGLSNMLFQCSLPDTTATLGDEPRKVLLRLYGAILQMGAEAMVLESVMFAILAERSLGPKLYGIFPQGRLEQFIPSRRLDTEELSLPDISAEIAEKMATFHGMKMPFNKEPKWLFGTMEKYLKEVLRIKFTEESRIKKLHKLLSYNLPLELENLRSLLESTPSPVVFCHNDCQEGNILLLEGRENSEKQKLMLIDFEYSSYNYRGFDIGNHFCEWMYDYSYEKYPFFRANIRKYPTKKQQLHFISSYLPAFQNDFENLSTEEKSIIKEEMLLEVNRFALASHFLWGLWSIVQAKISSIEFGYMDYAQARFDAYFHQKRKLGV

IC50 [1]: 2 nM | IC50 [2]: 84 nM
SMILES: CC1(C)Cc2cnc(N)nc2-c2[nH]nc(C(=O)Nc3nc(CC(=O)N4CCC(N5CCCCC5)CC4)cs3)c21 [compound 39]
inhibition at 0.08 µM ([3]; 0.08 μM compound): 35% | inhibition at 0.4 µM ([3]; 0.4 μM compound): 87% | inhibition at 2 µM ([3]; 2 μM compound): 98% | inhibition at 0.08 µM ([4]; 0.08 μM compound): 42% | inhibition at 0.4 µM ([4]; 0.4 μM compound): 85% | inhibition at 2 µM ([4]; 2 μM compound): 88%
